Counter-ions that a name gives are not always drawn.
Columns and labels:
[1] = biological target: human alpha1 nicotinic acetylcholine (nACh) receptor (Homo sapiens, UniProt P02708); assay: Nicotinic acetylcholine receptor antagonism assay, IONFlux automated patch clamp (Example 203); format: cell-based
Method: Cells expressing human alpha1 nicotinic acetylcholine (nACh) receptor (nAChR) were washed and dissociated using Trypsin containing buffer. Cells were then washed and seeded at a density of 3-5 million cells/mL and allowed to grow for 3 days. Then, 60-80 μL of cells were added to plates and incubated with dose response of an ARM compound of Formula (I) with a top concentration of either 10 μM or 100 μM. The receptor was then stimulated via addition of acetylcholine (ACh) and activation of the receptor was monitored via the IONFlux automated patch clamp system. IonFlux Data Analyzer software was utilized to perform leak subtraction and measure (min) peak current amplitude.
Data processing: (1) Current values recorded for vehicle only applications in individual traps/patterns were subtracted from corresponding current amplitude values for control, test article and control+test article. (2) Control response was calculated as % of the average response of the 3rd out of total 3 ACh (10 mM) applications alone. In rare situations, if the 3rd ACh response was obscured due to technical artifacts, the 2nd and/or 1st ACh (10 mM) application was considered as control. The peak current amplitude generated in the presence of each test article concentration was then used to calculate the % inhibition as compared to control response (10 mM ACh alone). These estimates were further corrected for vehicle response and run down corrected by normalizing with time matched control responses (10 mM ACh alone). The corrected percentages were then fit with a non-linear function in GraphPad Prism 6 (or later versions) to determine the IC50.
Exclusion criteria: (i) any n's with poor recording quality, (ii) control current amplitude <500 pA or (iii) significant outliers, as determined by the Grubbs test.
ARMs compounds of Formula (I) of the invention were tested for antagonism of the nAChR in the above assay in […] experimental runs and the results are shown in Table 7 below. Antagonistic activity of the compounds of Formula (I) of the invention is reported as an IC50 value (half maximal inhibitory concentration) and the maximum percentage antagonism observed at the highest concentration of compound of Formula (I) tested, as indicated in Table 7. For compounds tested in more than one experimental run, the IC50 value is reported as an average

[2] = test system: CCR2 expressing cells (CD11b+Ly6c+Hi) in peripheral blood; assay: In vivo depletion assay, flow cytometry of peripheral blood (Example 201); set-up: species or system human CCR2 knock-in mice (C57 background); conditions: hCCR2 knock-in mice, IV 0.1 mpk compound + 10 mpk anti-cotinine antibody (SEQ ID NO: 13/14), peripheral blood at 48 hr
Method: Stock solution preparation. Stock solutions of compounds of Formula (I) were prepared at 20 mg/mL and 100 mg/mL in […] for PK/PD and dose tolerability studies respectively. Stock solutions were stored at […] until further usage. on the day of experiment, the stock Solution of the compound of Formula (I) was removed from storage at […] and thawed at room temperature. Anti-cotinine antibody having a heavy chain sequence of SEC ID NO: 13 and a light chain sequence of SEQ ID NO: 14 (rabbit variable region sequence with mouse IgG2a Fc domain), if required was removed from storage at −80° C. and thawed at room temperature. Antibody vials were immediately transferred into wet ice after thawing. Compounds of Formula (I) were further diluted in DMSO as per experimental requirements.
The formulation composition was Saline: DMSI: PBS.
Saline was added based on the quantity required and then stock solution of the compound of Formula (I) prepared in DMSO, followed by addition of antibody in PBS. Formulations were incubated at room temperature for 30 minutes before administration to the mouse. DMSO was used at 1 to % (v/v) in the final formulation.
After bleeding, each mouse was sacrificed by cervical dislocation. […] Flow Cytometry Analysis:
CCR2 depletion in peripheral blood was determined by flow cytometry. Briefly, peripheral blood was collected from all animals at the end of study termination and processed. Blood samples were lysed using 1×RBC Lysis buffer and the resulting cell pellet was washed twice in FACS buffer (HBSS containing 5% FBS). Cells were subjected to Fc blocking using mouse Fc block from Biolegend (Trustain, anti-mouse CD16/32, Cat: 101319) to block non-specific binding followed by surface staining for immune markers (CD45, CD3, CD11 b, Ly6C, human CCR2). Surface staining was done for 30 minutes in ice and cells were washed twice to remove unbound antibodies. Cells were stained with 7AAD to determine viability and acquired on BD FACSVerse flow cytometer. Appropriate FMO controls and single-color controls were included in the experiment for gating and compensation respectively.
Percent depletion of CD11 b+Ly6c+Hi cells and CCR2 expression for the different treatment groups was determined.

[3] = test system: endogenous target monocytes in human PBMC; assay: PBMC ex vivo monocyte depletion flow cytometry assay (Example 200); format: cell-based; conditions: with anti-cotinine antibody (SEQ ID NO: 11/12), 18-24 hours, EC50 in molar, read-out: Ex Vivo Depletion Assay pEC50 (converted)
In short: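 Monocyte depletion is reported as pEC50, averaged or given individually across runs, and read by flow cytometry staining CD45, CD14 and CD4 with a viability dye. Compounds, diluted four-fold over 11 points from 1 mM DMSO stocks, were combined with 30 μg/mL Fc-enhanced anti-cotinine antibody and human PBMC, then incubated 18-24 h at 37° C.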

human alpha1 nicotinic acetylcholine (nACh) receptor, sequence (P02708 21-457): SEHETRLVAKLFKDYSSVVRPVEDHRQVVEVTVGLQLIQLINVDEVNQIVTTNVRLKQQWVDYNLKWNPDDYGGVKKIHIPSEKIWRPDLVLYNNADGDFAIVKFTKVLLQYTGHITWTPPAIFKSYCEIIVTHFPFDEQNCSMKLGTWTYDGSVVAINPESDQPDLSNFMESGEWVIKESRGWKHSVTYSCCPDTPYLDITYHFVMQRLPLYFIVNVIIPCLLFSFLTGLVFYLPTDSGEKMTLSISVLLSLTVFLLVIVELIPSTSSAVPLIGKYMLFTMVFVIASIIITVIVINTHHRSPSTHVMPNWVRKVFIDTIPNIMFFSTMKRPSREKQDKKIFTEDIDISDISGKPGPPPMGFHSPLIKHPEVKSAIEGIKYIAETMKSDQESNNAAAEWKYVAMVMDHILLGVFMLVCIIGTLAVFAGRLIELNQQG
human alpha1 nicotinic acetylcholine (nACh) receptor, sequence (P11230 24-501 partner): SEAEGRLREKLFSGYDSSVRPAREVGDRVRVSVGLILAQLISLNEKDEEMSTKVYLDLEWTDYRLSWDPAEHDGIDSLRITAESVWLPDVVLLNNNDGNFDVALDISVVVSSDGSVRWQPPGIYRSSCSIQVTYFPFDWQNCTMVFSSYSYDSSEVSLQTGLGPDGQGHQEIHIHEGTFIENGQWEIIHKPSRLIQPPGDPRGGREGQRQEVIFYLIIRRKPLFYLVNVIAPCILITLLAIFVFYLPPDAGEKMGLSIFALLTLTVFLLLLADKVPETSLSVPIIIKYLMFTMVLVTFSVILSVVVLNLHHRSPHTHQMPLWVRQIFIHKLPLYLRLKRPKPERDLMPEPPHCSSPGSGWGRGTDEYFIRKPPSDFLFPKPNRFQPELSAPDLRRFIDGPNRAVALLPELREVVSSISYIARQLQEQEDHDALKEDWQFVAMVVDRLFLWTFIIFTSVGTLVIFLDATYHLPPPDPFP
human alpha1 nicotinic acetylcholine (nACh) receptor, sequence (Q07001 22-517 partner): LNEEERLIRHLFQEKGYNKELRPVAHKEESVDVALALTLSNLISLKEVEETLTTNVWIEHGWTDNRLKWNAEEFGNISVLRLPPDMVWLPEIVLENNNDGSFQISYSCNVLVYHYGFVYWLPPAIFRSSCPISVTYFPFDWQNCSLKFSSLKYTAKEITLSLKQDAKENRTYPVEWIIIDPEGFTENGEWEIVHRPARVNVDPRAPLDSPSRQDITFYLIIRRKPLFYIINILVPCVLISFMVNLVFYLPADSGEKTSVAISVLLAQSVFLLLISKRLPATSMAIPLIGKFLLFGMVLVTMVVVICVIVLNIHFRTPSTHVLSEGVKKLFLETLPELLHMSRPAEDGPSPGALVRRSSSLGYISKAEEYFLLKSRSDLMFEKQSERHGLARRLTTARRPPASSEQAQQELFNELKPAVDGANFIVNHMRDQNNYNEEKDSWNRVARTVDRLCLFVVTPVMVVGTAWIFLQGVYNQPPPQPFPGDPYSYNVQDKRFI

Compound | % Depletion of CCR2 expressing cells [2] | EC50 [3] | also measured
CC(C)N(C)[C@@H]1CC[C@H](N2CC[C@H](Nc3ncnc4ccc(C(F)(F)F)cc34)C2=O)[C@H](NC(=O)[C@H]2C[C@@H](NC(=O)CCCO[C@H]3CC[C@H](OCCNC(=O)[C@H]4CC(=O)N(C)[C@@H]4c4cccnc4)CC3)C2)C1 [Example 9, (2S,3S)-N-(2-(((1S,4S)-4-(4-(((1S,3S)-3-(((1R,2S,5R)-5-(Isopropyl(methyl)amino)-2-((S)-2-oxo-3-((6-(trifluoromethyl)quinazolin-4-yl)amino)pyrrolidin-1-yl)cyclohexyl)carbamoyl)cyclobutyl)amino)-4-oxobutoxy)cyclohexyl)oxy)ethyl)-1-methyl-5-oxo-2-(pyridin-3-yl)pyrrolidine-3-carboxamide] |  |  | IC50 ([1]; antagonism of ACh-stimulated human alpha1 nAChR current, patch clamp): 82000 nM; Emax at 100 µM ([1]; maximum percentage antagonism at maximum concentration tested 100 μM, read-out: Maximum Response): 53.9%
CCN1C(=O)C[C@H](C(=O)NCCO[C@H]2CC[C@H](OCCCC(=O)N[C@H]3CC[C@H](C(=O)N[C@@H]4C[C@H](N(C)C(C)C)CC[C@@H]4N4CC[C@H](Nc5ncnc6ccc(C(F)(F)F)cc56)C4=O)CC3)CC2)[C@H]1c1cccnc1 [Example 11, (2S,3S)-1-ethyl-N-(2-(((1,4-trans)-4-(4-(((1,4-trans)-4-(((1R,2S,5R)-5-(isopropyl(methyl)amino)-2-((S)-2-oxo-3-((6-(trifluoromethyl)quinazolin-4-yl)amino)pyrrolidin-1-yl)cyclohexyl)carbamoyl)cyclohexyl)amino)-4-oxobutoxy)cyclohexyl)oxy)ethyl)-5-oxo-2-(pyridin-3-yl)pyrrolidine-3-carboxamide] | 91.57% |  | 
CC(C)N(C)[C@@H]1CC[C@H](N2CC[C@H](Nc3ncnc4ccc(C(F)(F)F)cc34)C2=O)[C@H](NC(=O)[C@H]2CC[C@H](NC(=O)CCCO[C@H]3CC[C@H](OCCNC(=O)[C@H]4CC(=O)N(C5CCC5)[C@@H]4c4cccnc4)CC3)CC2)C1 [Example 14, (2S,3S)-1-cyclobutyl-N-(2-(((trans)-4-(4-(((trans)-4-(((1R,2S,5R)-5-(isopropyl(methyl)amino)-2-((S)-2-oxo-3-((6-(trifluoromethyl)quinazolin-4-yl)amino)pyrrolidin-1-yl)cyclohexyl)carbamoyl)cyclohexyl)amino)-4-oxobutoxy)cyclohexyl)oxy)ethyl)-5-oxo-2-(pyridin-3-yl)pyrrolidine-3-carboxamide] | 47.24% |  | 
CC(C)(C)N[C@@H]1CC[C@H](N2CC[C@H](Nc3ncnc4ccc(C(F)(F)F)cc34)C2=O)[C@H](NC(=O)[C@H]2CC[C@H](NC(=O)CCCO[C@H]3CC[C@H](OCCNC(=O)[C@H]4CC(=O)N(C5CCC5)[C@@H]4c4cccnc4)CC3)CC2)C1 [Example 15, (2S,3S)-N-(2-(((1R,4S)-4-(4-(((1R,4R)-4-(((1R,2S,5R)-5-(tert-butylamino)-2-((S)-2-oxo-3-((6-(trifluoromethyl)quinazolin-4-yl)amino)pyrrolidin-1-yl)cyclohexyl)carbamoyl)cyclohexyl)amino)-4-oxobutoxy)cyclohexyl)oxy)ethyl)-1-cyclobutyl-5-oxo-2-(pyridin-3-yl)pyrrolidine-3-carboxamide] | 92.6% |  | 
CN1C(=O)C[C@H](C(=O)NCCOCCOCCOCCOCCOCCOCCOCCOCCC(=O)N[C@@H]2C[C@H](NC(C)(C)C)CC[C@@H]2N2CC[C@H](Nc3ncnc4ccc(C(F)(F)F)cc34)C2=O)[C@H]1c1cccnc1 [Example 36, (2S,3S)-N-(27-(((1R,2S,5R)-5-(tert-Butylamino)-2-((S)-2-oxo-3-((6-(trifluoromethyl)quinazolin-4-yl)amino)pyrrolidin-1-yl)cyclohexyl)amino)-27-oxo-3,6,9,12,15,18,21,24-octaoxaheptacosyl)-1-methyl-5-oxo-2-(pyridin-3-yl)pyrrolidine-3-carboxamide] | 83.33% |  | 
CC(C)N(C)[C@@H]1CC[C@H](N2CC[C@H](Nc3ncnc4ccc(C(F)(F)F)cc34)C2=O)[C@H](NC(=O)[C@H]2CC[C@@H](NC(=O)CCCOCCCOCCCNC(=O)[C@H]3CC(=O)N(C)[C@@H]3c3cccnc3)CC2)C1 [Example 193, (2S,3S)-N-(3-(3-(4-(((1S,4s)-4-(((1R,2S,5R)-5-(Isopropyl(methyl)amino)-2-((S)-2-oxo-3-((6-(trifluoromethyl)quinazolin-4-yl)amino)pyrrolidin-1-yl)cyclohexyl)carbamoyl)cyclohexyl)amino)-4-oxobutoxy)propoxy)propyl)-1-methyl-5-oxo-2-(pyridin-3-yl)pyrrolidine-3-carboxamide] |  | 0.2 nM | 
CC(C)N(C)[C@@H]1CC[C@H](N2CC[C@H](Nc3ncnc4ccc(C(F)(F)F)cc34)C2=O)[C@H](NC(=O)CCCCCCCCNCCOCCOCCOCCOCCNC(=O)[C@H]2CC(=O)N(C)[C@@H]2c2cccnc2)C1 [Example 195, (2S,3S)-N-(24-(((1R,2S,5R)-5-(Isopropyl(methyl)amino)-2-((S)-2-oxo-3-((6-(trifluoromethyl)quinazolin-4-yl)amino)pyrrolidin-1-yl)cyclohexyl)amino)-24-oxo-3,6,9,12-tetraoxa-15-azatetracosyl)-1-methyl-5-oxo-2-(pyridin-3-yl)pyrrolidine-3-carboxamide, 3Trifluoroacetic acid salt] |  | 0.316 nM | 
CC(C)N(C)[C@@H]1CC[C@H](N2CC[C@H](Nc3ncnc4ccc(C(F)(F)F)cc34)C2=O)[C@H](NC(=O)CCCCCCCCNCCCCCCCCCCNC(=O)[C@H]2CC(=O)N(C)[C@@H]2c2cccnc2)C1 [Example 196, (2S,3S)-N-(10-((9-(((1R,2S,5R)-5-(Isopropyl(methyl)amino)-2-((S)-2-oxo-3-((6-(trifluoromethyl)quinazolin-4-yl)amino)pyrrolidin-1-yl)cyclohexyl)amino)-9-oxononyl)amino)decyl)-1-methyl-5-oxo-2-(pyridin-3-yl)pyrrolidine-3-carboxamide, 3Formic acid salt.] |  | 0.2 nM | 
CC(C)N(C)[C@@H]1CC[C@H](N2CC[C@H](Nc3ncnc4ccc(C(F)(F)F)cc34)C2=O)[C@H](NC(=O)[C@H]2CC[C@@H](NC(=O)CCOCCCOCCCNC(=O)[C@H]3CC(=O)N(C)[C@@H]3c3cccnc3)CC2)C1 [Example 197, (2S,3S)-N-(3-(3-(3-(((1S,4s)-4-(((1R,2S,5R)-5-(Isopropyl(methyl)amino)-2-((S)-2-oxo-3-((6-(trifluoromethyl)quinazolin-4-yl)amino)pyrrolidin-1-yl)cyclohexyl)carbamoyl)cyclohexyl)amino)-3-oxopropoxy)propoxy)propyl)-1-methyl-5-oxo-2-(pyridin-3-yl)pyrrolidine-3-carboxamide] |  | 1 nM | 
